Experimental data as given in patent US4131620A, “Sulfamic acid halides and their manufacture” (BASF Aktiengesellschaft, priority 1976, dated 1978).

Tests used:
Sida spinosa = experiment: herbicidal action, post-emergence method, in a greenhouse; format: in vivo, Sida spinosa (teaweed (pricly sida)); details: Sida spin., 0 = no damage, 100 = complete destruction
Protocol: (§1) A range of crop plants and of unwanted plants are treated in a greenhouse. The test plants, segregated according to species, are grown in plastic pots. […] Water (300 liters per hectare) serves as the vehicle and dispersing medium. […] The results are rated on a scale of from 0 to 100, with O = no damage and 100 = complete destruction.

Ammannia coccinea = experiment: as above; format: in vivo, Ammannia coccinea (redstem); details: Amm. cocc., 0 = no damage, 100 = complete destruction
Protocol: (§2) A range of crop plants and of unwanted plants are treated in a greenhouse. The test plants, segregated according to species, are grown in plastic pots. When they have grown to from 2 to 15 cm, depending on the age and the habit of the species, emulsions of the end product I prepared in Example 10 are applied to the leaves by means of jets which produce a fine spray (post-emergence treatment). Water (300 liters per hectare) serves as the vehicle and dispersing medium. […] The results are rated on a scale of from 0 to 100, with O = no damage and 100 = complete destruction.

Amaranthus retroflexus = experiment: as above; format: in vivo, Amaranthus retroflexus (pigweed); details: Amar. retr., 0 = no damage, 100 = complete destruction
Protocol: as §1

Ipomoea spp. = experiment: as above; format: in vivo, Ipomoea spp. (morning glory); details: Ipom. spp., 0 = no damage, 100 = complete destruction
Protocol: as §1

crop plants = experiment: herbicidal action, post-emergence treatment in a greenhouse, crop plants; format: in vivo; details: after one week
Protocol: as §2

Ludwigia spp. = experiment: herbicidal action, post-emergence method, in a greenhouse; format: in vivo; details: Ludw. spp., 0 = no damage, 100 = complete destruction
Protocol: as §1

Oryza sativa = experiment: as above; format: in vivo, Oryza sativa (rice); details: Oryz. sat., 0 = no damage, 100 = complete destruction
Protocol: as §1

Cyperus esculentus = experiment: as above; format: in vivo, Cyperus esculentus (yellow nutsedge); details: Cyp. esc., 0 = no damage, 100 = complete destruction
Protocol: as §1

Avena sativa = experiment: as above; format: in vivo, Avena sativa (oats); details: Avena sat., 3 kg/ha of active ingredient (footnote +), 0 = no damage, 100 = complete destruction
Protocol: as §2

Sinapis alba = experiment: as above; format: in vivo, Sinapis alba (white mustard); details: Sin. alba, 3 kg/ha of active ingredient (footnote +), 0 = no damage, 100 = complete destruction
Protocol: as §2

Glycine max = experiment: as above; format: in vivo, Glycine max (soy beans); details: Glyc. max, 0 = no damage, 100 = complete destruction
Protocol: as §2

Sesbania exaltata = experiment: as above; format: in vivo, Sesbania exaltata (hemp sesbania (coffeeweed)); details: Sesb. exalt., 0 = no damage, 100 = complete destruction
Protocol: as §2

unwanted plants = experiment: herbicidal action, post-emergence treatment in a greenhouse, unwanted plants; format: in vivo
Protocol: as §2

With `CCN(COC)S(=O)(=O)N1c2ccccc2C(=O)N(C(C)C)S1(=O)=O` [Example 10, 3-isopropyl-1-N'-methoxymethyl-N'-ethylsulfamoyl-2,1,3-benzothiadiazin-4-one-2,2-dioxide] the “% damage” value (Sida spinosa; 2.0 kg/ha of active ingredient) was 95%, the “% damage” value (Sida spinosa; 4.0 kg/ha of active ingredient) was 95% and the “% damage” value (Ammannia coccinea; 2.0 kg/ha of active ingredient) was 50%. For the same compound, the “% damage” value (Ammannia coccinea; 4.0 kg/ha of active ingredient) was 60%, the “% damage” value (Amaranthus retroflexus; 2.0 kg/ha of active ingredient) was 60% and the “% damage” value (Amaranthus retroflexus; 4.0 kg/ha of active ingredient) was 60%. The “% damage” value (Ipomoea spp.; 2.0 kg/ha of active ingredient) was 50%, the “% damage” value (Ipomoea spp.; 4.0 kg/ha of active ingredient) was 90% and the “damage to crop plants (in words)” value (crop plants) was “very little or no attach”. The “% damage” value (Ludwigia spp.; 2.0 kg/ha of active ingredient) was 50%, the “% damage” value (Ludwigia spp.; 4.0 kg/ha of active ingredient) was 75% and the “% damage” value (Oryza sativa; 2.0 kg/ha of active ingredient) was 0%. The “% damage” value (Oryza sativa; 4.0 kg/ha of active ingredient) was 0%, the “% damage” value (Cyperus esculentus; 2.0 kg/ha of active ingredient) was 60% and the “% damage” value (Cyperus esculentus; 4.0 kg/ha of active ingredient) was 70%. The “% damage” value (Avena sativa) was 0%, the “% damage” value (Sinapis alba) was 100% and the “% damage” value (Glycine max; 2.0 kg/ha of active ingredient) was 5%. For the same compound, the “% damage” value (Glycine max; 4.0 kg/ha of active ingredient) was 15%, the “% damage” value (Sesbania exaltata; 2.0 kg/ha of active ingredient) was 50% and the “% damage” value (Sesbania exaltata; 4.0 kg/ha of active ingredient) was 60%. For the same compound, the “onset of action (in words)” value (unwanted plants) was “The action sets in rapidly” and the “damage to unwanted plants (in words)” value (unwanted plants; after one week) was “dying”.
